Experimental data: patent US4977152A, “Novel tricyclic derivatives which are agonists of cholinergic receptors, and drugs in which they are present” (Societe Anonyme: Sanofi, priority 1986, dated 1990)
Substitutions are numbered along the chain they refer to. pIC50: −log10 of the molar value. Several values for one entry are separate records, joined by “and”; a condition that tells them apart may be missing. Equal values may be shown once. Where a name gives a salt, the structure may show the parent alone. Read-outs that look alike come from different tables or passages of the source.

Legend:
[1] = target: T1, M1 central muscarinic cholinergic receptors (Mus musculus, UniProt P12657); experiment: Antagonism of rotational behavior induced by intrastriatal injection of pirenzepine in mice; assay type: in vivo, mice (female, Swiss, CD 1); conditions: ip, read-out: Pirenzepine antagonism ED50
T1 construct: The intrastriatal injection of PZ into mice induces rotational behavior; from tissue; host or cells: right striatum of living female mice (Swiss, CD 1)
T1 sequence (P12657 1-460): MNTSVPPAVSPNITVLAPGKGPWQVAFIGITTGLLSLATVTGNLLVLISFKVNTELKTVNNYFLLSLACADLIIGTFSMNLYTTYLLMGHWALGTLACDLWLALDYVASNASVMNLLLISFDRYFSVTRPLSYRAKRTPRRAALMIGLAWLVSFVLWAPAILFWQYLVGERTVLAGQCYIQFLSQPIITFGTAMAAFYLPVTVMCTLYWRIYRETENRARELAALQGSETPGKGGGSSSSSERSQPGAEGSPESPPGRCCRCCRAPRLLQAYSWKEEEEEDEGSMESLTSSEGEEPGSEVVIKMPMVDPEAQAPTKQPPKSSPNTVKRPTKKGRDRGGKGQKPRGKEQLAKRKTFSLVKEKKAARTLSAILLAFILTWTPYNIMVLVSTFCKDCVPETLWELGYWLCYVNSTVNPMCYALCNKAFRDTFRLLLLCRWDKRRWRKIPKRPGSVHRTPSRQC
Method: Pirenzepine (PZ) is a specific antagonist of M1 central muscarinic cholinergic receptors. The intrastriatal injection of PZ into mice induces rotational behavior. The antagonism of this behavior by the products according to the invention was studied.
The products according to the invention are injected intraperitoneally (i.p.) after solubilization in distilled water or suspension in a 5% solution of gum arabic. The control animals receive an injection of the pure solvent under the same conditions.
The animals used are female mice (Swiss, CD 1, Charles River, France) with a body weight of between 25 and 30 grams.
Pirenzepine is dissolved in a phosphate buffer; the pH of the solution is 6.
The products to be studied or their solvents are injected intraperitoneally, in a volume of 0.4 ml per 20 g of body weight, 15 minutes before a direct injection of pirenzepine at a dose of […] into the right striatum of the mouse, according to the method described by p.
The number of contralateral rotations (rotations in the opposite direction to the side injected) was counted for three 2-minute periods after the injection of pirenzepine: minutes 2 to 4, 8 to 10 and 13 to 15. Each treatment includes 3 to 4 doses and 10 animals per dose. For each treatment, the total number of rotations and the percentage antagonism compared with the control group are calculated.

[2] = target: T2, M1-type muscarinic cholinergic receptor (Rattus norvegicus, UniProt P08482); experiment: Test for affinity for the M1-type muscarinic cholinergic receptor: displacement of [3H]pirenzepine on rat hippocampus homogenate; assay type: binding; conditions: for pIC50: rat hippocampus homogenate, 1 nM [3H]PZ, 2 h at 4° C., pH 7.40; for r = (M2 /M1): ratio of IC50 M2 (3H-NMS, guinea-pig ileum) to IC50 M1 (3H-pirenzepine, rat hippocampus)
T2 sequence (P08482 1-460): T1 sequence (P12657 1-460) with P309S
Text: (§1) The M1 -type receptors are concentrated in certain areas of the brain, such as the hippocampus, the cerebral cortex and the striatum, and also in the sympathetic ganglia. These binding sites can be selectively labeled with [^3 H]pirenzepine ([^3 H]PZ). The M2 -type receptors predominate in the heart and ileum and can be labeled with [^3 H]N-methylscopolamine ([^3 H]NMS). To determine the selectivity of our molecules towards the M1 and M2 sites, we studied their interaction in vitro with [^3 H]PZ and [^3 H]NMS bound with a high affinity to membranes of rat hippocampus and membranes of smooth muscle of guinea-pig ileum, respectively.
The interaction of the molecules with M1 -type muscarinic receptors was studied by in vitro measurement, on a homogenate of rat hippocampus, of the displacement of tritiated pirenzepine ([^3 H]PZ) from its specific binding sites. Aliquots (10 μl) of a 5% (w/v) homogenate of rat hippocampus in an Na2 HPO4 buffer (50 mM, pH 7.40) are incubated for 2 h at 4° C. in the presence of [^3 H]pZ ([…]; final concentration: 1 nM) and increasing concentrations of products to be studied. The final volume is 2 ml. The reaction is stopped by centrifugation for 10 min at 50,000 × g. After decantation and washing of the residues, the bound radioactivity is counted by liquid scintillation. The non-specific binding is determined in the presence of 10 μmol/l of atropine sulfate. The 50% inhibitory concentration (IC50) is determined graphically (Ref.: Watson J. D., Roeskoe W. R. and Yamamura H.1., Life Sci., 31, 2019-2029, 1982).
(§2) Table 4 indicates the affinities of the products of the invention for M1 and M2 receptors. The results are expressed as 50% inhibitory concentrations (IC50), i.e. the concentration (in μM) which causes a 50% displacement placement of the tritiated ligand bound to the membrane receptors. The IC50 for displacement of ^3 H-pirenzepine represents the affinity for the M1 receptor; the IC50 for displacement of 3H-NMS represents the affinity for the M2 receptor.

[3] = target: T3, M2-type muscarinic cholinergic receptor (Cavia porcellus, UniProt H0VRN8); experiment: Test for affinity for the M2-type muscarinic cholinergic receptor: displacement of [3H]N-methylscopolamine on smooth muscle of guinea-pig ileum; assay type: binding; conditions: guinea-pig ileum smooth muscle homogenate, 0.3 nM [3H]NMS, 20 min at 30° C., pH 7.5
T3 construct: on a homogenate of smooth muscle of guinea-pig ileum; from tissue; host or cells: guinea-pig ileum smooth muscle homogenate
T3 sequence (H0VRN8 1-466): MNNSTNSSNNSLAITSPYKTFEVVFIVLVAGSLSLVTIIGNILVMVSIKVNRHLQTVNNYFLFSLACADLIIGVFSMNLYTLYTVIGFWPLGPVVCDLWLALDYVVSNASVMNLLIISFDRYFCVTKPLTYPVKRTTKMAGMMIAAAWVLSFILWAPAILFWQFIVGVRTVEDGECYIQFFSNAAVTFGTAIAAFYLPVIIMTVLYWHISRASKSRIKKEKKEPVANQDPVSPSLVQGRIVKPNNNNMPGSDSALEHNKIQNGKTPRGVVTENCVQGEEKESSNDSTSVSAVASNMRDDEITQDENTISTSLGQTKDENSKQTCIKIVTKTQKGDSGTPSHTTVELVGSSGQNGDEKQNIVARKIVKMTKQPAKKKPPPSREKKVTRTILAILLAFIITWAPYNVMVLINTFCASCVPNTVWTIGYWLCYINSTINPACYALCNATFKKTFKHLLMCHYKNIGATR
Text: as §1
The interaction with M2 -type muscarinic receptors was studied by in vitro measurement, on a homogenate of smooth muscle of guinea-pig ileum, of the displacement of tritiated N-methylscopolamine ([^3 H]NMS) from its specific binding sites. Aliquots (50 μl) of a 0.625% (w/v) homogenate of smooth muscle of guinea-pig ileum in MEPES buffer (20 mM) containing NaCl (100 mM) and MgCl2 (10 mM) (final pH: 7.5) are incubated for 20 min at 30° C. in the presence of [^3 H]NMS ([…]; final concentration: 0.3 nM) and increasing concentrations of products to be tested. The final volume is 1 ml. The reaction is stopped by centrifugation for 5 min at 15,000 × g. The non-specific binding is determined in the presence of 10 μmol/l of atropine sulfate (Ref.: Hammer R., Berrie C. P., Birdsall N. I. M., Burgen A. S. V. and Hulme E. C., Nature, 283, 90-92, 1980; Hulme E. C., Birdsall N.1.M., Burgen A. S. V. and Mettha P., Mol. pharmacol., 14, 737-750, 1978).
as §2

[4] = mice, i.p. 15 minutes before intrastriatal pirenzepine, 50% reduction in number of rotations

Row | ED50 [1, 4] | SMILES | pIC50 [2] | r = (M2 /M1) [2] | pIC50 [3] | ED50 [1] | r = (M2 /M1) ([2]; dihydrochloride)
1 | 3 mg/kg | CCN(CC)CCNc1cc2c(nn1)-c1ccccc1CCC2 [SR 95640 A] | 7.30 | 40 | 5.70 |  | 
2 |  | Cl.Cl.c1ccc2c(c1)ccc1cc(NCCN3CCOCC3)nnc12 [SR 95679 A, 3-(2-Morpholinoethylamino)benzo[h]cinnoline dihydrochloride] | 5.51 |  | 4.00 and < 4.00 | 10 mg/kg | 32 and > 32
3 |  | Cl.Cl.c1ccc2c(c1)CCc1cc(NCCN3CCOCC3)nnc1-2 [SR 95695 A, 3-(2-Morpholinoethylamino)-5,6-dihydrobenzo[h]cinnoline dihydrochloride] | 5.59 |  | 4.00 and < 4.00 | 5 mg/kg | 38 and > 38
4 |  | CCN(CC)CCSc1cc2c(nn1)-c1ccccc1CC2.Cl [SR 95743 A, 3-(2-Diethylaminoethylthio)-5,6-dihydrobenzo[h]cinnoline hydrochloride] | 6.15 | 14 | 5.00 | 8 mg/kg | 
5 |  | CN(C)CCOc1cc2c(nn1)-c1ccccc1CC2.Cl [SR 95745 A, 3-(2-Dimethylaminoethoxy)-5,6-dihydrobenzo[h]cinnoline hydrochloride] | 5.41 | 21 | 4.10 | 8 mg/kg | 
6 |  | CCN(CC)CCCNc1cc2c(nn1)-c1ccccc1CC2.Cl.Cl [SR 95746 A, 3-(3-Diethylaminopropylamino)-5,6-dihydrobenzo[h]-cinnoline dihydrochloride] | 5.82 | 17 | 4.60 | 10 to 30 mg/kg | 
7 |  | CCN(CC)CCNc1cc2c(nn1)-c1cc([N+](=O)[O-])ccc1CCC2.Cl.Cl [SR 95777 A, 3-(2-Diethylaminoethylamino)-10-nitro-6,7-dihydro-5H-benzocyclohepta[5,6-c]pyridazine dihydrochloride] | 7.00 | 56 | 5.25 | 0.5 mg/kg | 
8 | 7 mg/kg | CCN(CC)CCCNc1cc2c(nn1)-c1ccccc1CCC2 [SR 95818 A] | 6.62 | 50 | 4.92 |  | 
9 | 8 mg/kg | CCN(CC)CCSc1cc2c(nn1)-c1ccccc1CCC2 [SR 95820 A, 3-(2-Diethylaminoethylthio)-6,7-dihydro-5H-benzocyclohepta[ [drawing 52] 5,6-c]pyridazine hydrochloride] | 7.15 | 29 | 5.70 |  | 
10 |  | CN(C)CCOc1cc2c(nn1)-c1ccccc1CCC2.Cl [SR 95822 A, 3-(2-Dimethylaminoethoxy)-6,7-dihydro-5H-benzocyclohepta[5,6-c]pyridazine hydrochloride] | 6.00 | 9.5 | 5.02 | 3 mg/kg | 
11 | 3 mg/kg | CN(C)CCNc1cc2c(nn1)-c1ccccc1CCC2 [SR 95824 A] | 6.70 | 125 | 4.60 |  | 
12 |  | CCN(CC)CCNc1cc2c(nn1)-c1cc(Cl)ccc1CCC2.Cl.Cl [SR 95878 A, 10-Chloro-3-(2-diethylaminoethylamino)-6,7-dihydro-5H-benzocyclohepta[5,6-c]pyridazine dihydrochloride] | 7.40 | 26 | 5.96 | 2 mg/kg | 
13 | 0.3 mg/kg | CCN1CCCC1CNc1cc2c(nn1)-c1ccccc1CCC2 (stereo not shown) [SR 95879 A, 3-[(1-Ethylpyrrolidin-2-yl)methylamino]-6,7-dihydro-5H-benzocyclohepta-5,6-c]pyridazine dihydrochloride] | 6.85 | 7 | 6.00 |  | 
14 | 3 mg/kg | c1ccc2c(c1)CCCc1cc(NCCN3CCCC3)nnc1-2 [SR 95883 A] | 6.89 | 35 | 5.35 |  | 
15 |  | CCN(CC)CCNc1cc2c(nn1)-c1ccccc1CC2.Cl.Cl [SR 96054 A, 3-(2-Diethylaminoethylamino)-5,6-dihydrobenzo[h]cinnoline dihydrochloride] | 6.68 | 36 | 5.12 | 3 mg/kg | 
16 |  | CCN(CC)CCNc1cc2ccc3ccccc3c2nn1.Cl.Cl [SR 96055 A, 3-(2-Diethylaminoethylamino)benzo[h]cinnoline dihydrochloride] | 6.49 | 53 | 4.77 | 3 mg/kg | 
